The source of these data is US6714815B2, “Method for the iontophoretic non-invasive determination of the in vivo concentration level of an inorganic or organic substance” (The Regents of the University of California, priority 1988, dated 2004).

The structures appear in SMILES notation. Structures can show the parent of a compound that is named as a salt.

The procedure of data set [1]:
FIG. 5—The iontophoretic sampling was extended to another neutral bioactive molecule: ethanol.
An identical protocol to that employed for glucose experiments is followed. The only difference being in the concentration of ethanol in the dermal side. A concentration of 17 mM was used as this corresponds to a 0.08% solution, the maximum blood alcohol level legally allowed.
Radioactivity was again used to measure the extracted ethanol. The dermal side using radioactive ethanol, [1-14C]

The procedure of data set [2]: Drugs—Clonidine HCl (Sigma Chemical Co., St. Louis, Mo.); Clonidine-HCl (phenyl-4-^3H) of specific activity 90 mCi/mg (Amersham, Arlington Heights, Ill.). […] The non-labelled drugs were dissolved in deionized water to form solutions of 1 mg/ml, with enough labelled drug to achieve an activity of approximately […].
Skin (13)—Full-thickness skin, freshly excised from 11-15 week old female hairless mice (strain Skh:HR-1, Simonsen Laboratory, Gilroy, Calif.).
Testing of the Modeling Cell—The diffusion cell 10 was tested in three ways:
(1) Leakage tests (without current) using dye and silicone rubber than skin; (2) leakage tests using dye and skin (without current); and (3) iontophoretic tests using the drug solutions and skin (with and without current). Procedures (1) and (2) were evaluated by visually inspecting the cell. For procedure (3), 0.6 ml of labelled drug solution was placed in chamber 16A, 0.6 ml of buffered saline was pipetted into chamber 16C, and a constant current of 0.63 mA/cm^2 (with the voltage limited at 9 V) was imposed between the electrodes in the two chambers. The activity of the solutions in chambers 16A and 16C was determined before and after iontophoresis. The activity of the skin 13 and of the samples taken from the receptor chamber was determined post-experimentally. Each experiment lasts approximately 24 hours, ±2 hours, with samples collected hourly. Receptor fluid 17 was magnetically stirred (27), and the collection flow rate was 10 ml/hr. Each procedure was, repeated three times.
The source holds these as a separate data set.

For data set [3] the following is noted: forearm of a person; compared with in vitro case.
Data set [4] in a line: In-vitro iontophoretic delivery of P.S.O.S. in the diffusion cell. It counts as in vitro ADME. Here is the method: (b) P.S.O.S. (Potassium Sucrose Octa Sulfate) P.S.O.S., 0.6 ml of 1.5 mg/ml solution in a boric buffer is placed in chamber 16A and boric acid buffer alone is placed in chamber 16C of FIGS. 1, 2 or 3. Using a direct current of 0.5 mA (0.65 mA/cm^2) transport of P.S.O.S is observed up to 5 μg/hr.

The mark [5] stands for this setting: female, Skh:HR-1 hairless, mouse, 1 mg/ml.

In the case of `CCO` [ethanol], the “amount of ethanol extracted iontophoretically” value in data set [1] (ethanol 17 mM on the dermal side, compared with glucose) is reported as “far greater than that obtained with glucose”. Also, the passive flux result in data set [1] (ethanol 17 mM on the dermal side, no current) is “large passive flux”. Further, in data set [1] (preliminary experiments), the “cathodal versus anodal concentration” value is listed as “cathodal concentration is greater than anodal” and the “metabolism during iontophoretic sampling” value is on record as “does not seem to be metabolized”.
Take `Clc1cccc(Cl)c1N=C1NCCN1` [clonidine-HCl, Clonidine HCl]: the “drug in the buffered saline of chamber 16C” value in data set [2] was “no drug was found”. Further, in data set [2] (setting [5]), the “mean rate of diffusion into the receptor phase (passive transport rate)” value amounted to 0.05 μg/cm^2/hr and the “rate of penetration through the skin” value was 15.0 μg/cm^2/hr. The “labelled drug detected in the buffered saline of chamber 16C” value in data set [2] (female, Skh:HR-1 hairless, mouse, 20 h, 1 mg/ml) was found to be 5 µg. In addition, the “amount of clonidine sampled” value in data set [3] is on record as “comparable to that observed in the in vitro case”.
Consider `O=S(=O)([O-])OC[C@H]1O[C@@](COS(=O)(=O)[O-])(O[C@H]2O[C@H](COS(=O)(=O)[O-])[C@@H](OS(=O)(=O)[O-])[C@H](OS(=O)(=O)[O-])[C@H]2OS(=O)(=O)[O-])[C@@H](OS(=O)(=O)[O-])[C@@H]1OS(=O)(=O)[O-].[K+].[K+].[K+].[K+].[K+].[K+].[K+].[K+]` [P.S.O.S, Potassium Sucrose Octa Sulfate], for which the “transport of P.S.O.S” value in data set [4] (direct current of 0.5 mA (0.65 mA/cm^2), 0.6 ml of 1.5 mg/ml in boric buffer in chamber 16A) is “up to 5 μg/hr”. In addition, the P.S.O.S transferred result in data set [4] (same experimental configuration, printed 'with a current') is listed as “only a few nanograms”.
